Experimental data: US20250312469A1 (CANGET BIOTEKPHARMA, priority 2024, published 2025)

Columns and labels:
DDX5 = DDX5 (Homo sapiens, UniProt P17844); test: Isothermal titration calorimetry (ITC), Flag-DDX5; type: binding; details: from ITC KD
Panc-1 and BxPC-3 cells = test: Cell attachment after FL118 pretreatment; type: cell-based, human; details: 24 h pretreatment, reseeded
Experimental: The harvested cells were then reseeded at an expected 30-60% confluence if all cell attached to the cell cultural dish. […] Representative cell attachment images were taken 4-16 hours dependent on control cell attachment speed after cell seeding. Quantitative analysis of non-attached cell numbers was documented in parallel for each condition.

Hepatocyte stability = details: for hepatocyte CLint at 0.5 μM / half-life at 0.5 μM: both, human, hepatocytes; for hepatocyte CLint at 0.5 μM: pH 7.4, Clint (intrinsic clearance); for hepatocyte CLint at 0.5 μM / half-life at 0.5 μM / % Remaining: cryopreserved human hepatocytes; for half-life at 0.5 μM: pH 7.4, Half-life
Plasma stability = type: in vitro ADME, human
Experimental: Both matrices were adjusted to pH 7.4 prior to initiating the experiments. A DMSO stock as first prepared for the test article. […] The vials were kept in a benchtop Thermomixer for the duration of the experiment. Aliquots (100 μL) were taken at each time point (0, 15, 30, 60, and 120 minutes) and added to 96-well plates which had been pre-filled with 300 μL of acetonitrile (ACN). Samples were stored at 4° C. until the end of the experiment. […] Analytical conditions are outlined in Appendix 1.

CYP1A2 mRNA = test: CYP induction (mRNA) in fresh human hepatocytes
From the text: (§1) (2) CYP positive inducers (Table 58a) and Williams' Medium E (WME) were purchased from Sigma-Aldrich (St. Louis, MO, USA). Dulbecco's phosphate-buffered saline (DPBS, pH 7.4) was purchased from Invitrogen (Carlsbad, CA, USA). Hepatocyte culture medium (serum-free) for CYP induction was purchased from XenoTech (catalog #K2300, Lenexa, KS, USA). The CellTiter 96 AQueous ONE Solution Cell Proliferation Assay was obtained from Promega (Madison, WI, USA). All other chemicals and reagents were of analytical grade or higher. (3) Fresh human hepatocytes (Table 58b) seeded at ˜0.15 million cells/well in 48-well plates (˜0.75 million cells/mL) were purchased from Thermo Fisher Scientific (Grand Island, NY, USA) and BioreclamationIVT (Baltimore, MD, USA).
(§2) Vehicle controls were treated in parallel with hepatocyte culture medium. […] (2) After the CYP induction treatment, the cells were used for a cell viability assay. […] The absorbance of formazan, which is proportional to the number of viable cells, was measured spectrophotometrically using the CellTiter 96 AQueous ONE Solution Cell Proliferation Assay. […] (3) Total RNA was isolated from the treated cells using the RNeasy mini kit (Qiagen, Valencia, CA, USA) and treated with RNase-free DNase (Qiagen) following the manufacturer's protocols. The concentration of RNA was determined using a Qubit Fluorometer with a Qubit RNA HS assay kit (Invitrogen). cDNA was synthesized from up to 1 μg of the total RNA harvested from the cells using a QuantiTect RT kit (Qiagen). Analysis of gene expression by qPCR was performed using the LightCycler 480 System (Roche Diagnostics Corporation, Indianapolis, IN, USA).

CYP2B6 mRNA = test: CYP induction (mRNA) in fresh human hepatocytes
From the text: as §1, §2

CYP3A4 mRNA = details: human, hepatocytes
From the text: as §1
Vehicle controls were treated in parallel with hepatocyte culture medium. […] (2) After the CYP induction treatment, the cells were used for a cell viability assay. […] The absorbance of formazan, which is proportional to the number of viable cells, was measured spectrophotometrically using the CellTiter 96 AQueous ONE Solution Cell Proliferation Assay. […] The concentration of RNA was determined using a Qubit Fluorometer with a Qubit RNA HS assay kit (Invitrogen). cDNA was synthesized from up to 1 μg of the total RNA harvested from the cells using a QuantiTect RT kit (Qiagen). […]

in vivo = details: female, SCID, mouse; for Tmax / half-life: po
UbE2T = target: T1, UbE2T (Homo sapiens, UniProt Q9NPD8); test: UbE2T protein (WB) and mRNA (RT-PCR) in PCa cells; type: cell-based; design: purchased Invitrogen ProtoArray Human Protein Microarray v5.0
T1 sequence (Q9NPD8 1-197): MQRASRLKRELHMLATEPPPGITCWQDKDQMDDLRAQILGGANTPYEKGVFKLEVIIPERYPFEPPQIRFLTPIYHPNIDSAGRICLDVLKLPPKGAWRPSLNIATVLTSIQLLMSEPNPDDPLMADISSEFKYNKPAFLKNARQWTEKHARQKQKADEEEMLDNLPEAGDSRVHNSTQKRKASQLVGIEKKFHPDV

Sequence of DDX5 (P17844 whole entry): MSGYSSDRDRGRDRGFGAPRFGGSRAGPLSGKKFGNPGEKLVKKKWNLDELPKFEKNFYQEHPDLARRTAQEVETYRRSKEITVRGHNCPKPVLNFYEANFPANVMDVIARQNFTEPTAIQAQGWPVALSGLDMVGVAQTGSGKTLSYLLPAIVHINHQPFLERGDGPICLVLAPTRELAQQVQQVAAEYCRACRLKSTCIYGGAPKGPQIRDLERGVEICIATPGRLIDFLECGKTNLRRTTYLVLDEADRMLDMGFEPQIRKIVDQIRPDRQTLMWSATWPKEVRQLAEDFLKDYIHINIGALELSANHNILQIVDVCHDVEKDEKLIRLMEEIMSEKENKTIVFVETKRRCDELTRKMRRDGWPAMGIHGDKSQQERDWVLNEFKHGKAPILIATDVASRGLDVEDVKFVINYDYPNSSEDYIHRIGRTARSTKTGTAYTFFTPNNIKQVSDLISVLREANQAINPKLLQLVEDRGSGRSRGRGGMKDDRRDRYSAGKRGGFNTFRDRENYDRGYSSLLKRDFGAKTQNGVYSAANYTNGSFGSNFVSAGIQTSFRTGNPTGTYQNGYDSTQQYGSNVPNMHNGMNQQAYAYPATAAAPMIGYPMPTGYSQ

CCC1(O)C(=O)OCc2c1cc1n(c2=O)Cc2cc3cc4c(cc3nc2-1)OCO4 (stereo not drawn) [FL118]
FL118 binding to DDX5 versus Top1 (times stronger) (DDX5): about 10 | cell attachment (Panc-1 and BxPC-3 cells): exhibited cell attachment defect | half-life (Hepatocyte stability; 0.5 μM): long half-life | hepatocyte CLint at 0.5 μM (Hepatocyte stability; calculated (in parentheses)): 2.96 µL/min/1e6 cells | hepatocyte CLint at 0.5 μM (Hepatocyte stability; bound): < 3.85 µL/min/1e6 cells | half-life at 0.5 μM (Hepatocyte stability; calculated (in parentheses), calculated half-life longer than the experiment): 2.6 h | half-life at 0.5 μM (Hepatocyte stability; expressed as > the longest incubation time (120 min)): > 2 h | % Remaining (Hepatocyte stability; 0 min): 100% | % Remaining (Hepatocyte stability; 15 min): 79% | % Remaining (Hepatocyte stability; 30 min): 71% | % Remaining (Hepatocyte stability; 60 min): 66% | % Remaining (Hepatocyte stability; 120 min): 58% | half-life (Plasma stability; 0.5 μM): long half-life | Percent Remaining (Plasma stability; Human Plasma, 0 min): 100% | Percent Remaining (Plasma stability; Human Plasma, 15 min): 111% | Percent Remaining (Plasma stability; Human Plasma, 30 min): 110% | Percent Remaining (Plasma stability; Human Plasma, 60 min): 94% | Percent Remaining (Plasma stability; Human Plasma, 120 min): 26% | half-life at 0.5 μM (Plasma stability; both sexes, plasma (sodium heparin), pH 7.4, Human Plasma): 1.53 h | % of OME-treated Cells (CYP1A2 mRNA; donor 1, 0.01 μM): 0.15% | induction of CYP1A2 mRNA (CYP1A2 mRNA; donor 1, 0.01 μM): < 2 fold | % of OME-treated Cells (CYP1A2 mRNA; donor 1, 0.1 μM): 1.1% | induction of CYP1A2 mRNA (CYP1A2 mRNA; donor 1, 0.1 μM): 2.0 fold | % of OME-treated Cells (CYP1A2 mRNA; donor 1, 1 μM): 2.6% | induction of CYP1A2 mRNA (CYP1A2 mRNA; donor 1, 1 μM): 3.4 fold | % of OME-treated Cells (CYP1A2 mRNA; donor 2, 0.001 μM): 0.88% | induction of CYP1A2 mRNA (CYP1A2 mRNA; donor 2, 0.001 μM): 2.3 fold | % of OME-treated Cells (CYP1A2 mRNA; donor 2, 0.005 μM): 1.0% | induction of CYP1A2 mRNA (CYP1A2 mRNA; donor 2, 0.005 μM): 2.5 fold | % of OME-treated Cells (CYP1A2 mRNA; donor 2, 0.01 μM): 2.6% | induction of CYP1A2 mRNA (CYP1A2 mRNA; donor 2, 0.01 μM): 4.9 fold | % of OME-treated Cells (CYP1A2 mRNA; donor 3, 0.025 μM): 1.6% | induction of CYP1A2 mRNA (CYP1A2 mRNA; donor 3, 0.025 μM): 2.0 fold | % of OME-treated Cells (CYP1A2 mRNA; donor 3, 0.05 μM): 1.6% | induction of CYP1A2 mRNA (CYP1A2 mRNA; donor 3, 0.05 μM): 2.1 fold | % of PB-treated Cells (CYP2B6 mRNA; Donor 1, 0.01 μM, negative values treated as zero): 0% | % of PB-treated Cells (CYP2B6 mRNA; Donor 1, 0.1 μM, negative values treated as zero): 0% | % of PB-treated Cells (CYP2B6 mRNA; Donor 1, 1 μM, negative values treated as zero): 0% | % of PB-treated Cells (CYP2B6 mRNA; Donor 3, 0.025 μM, negative values treated as zero): 0% | % of PB-treated Cells (CYP2B6 mRNA; Donor 3, 0.05 μM, negative values treated as zero): 0% | induction of CYP2B6 mRNA (CYP2B6 mRNA; donor 1, 0.01, 0.1, 1 μM): did not increase CYP2B6 mRNA | % of PB-treated Cells (CYP2B6 mRNA; donor 2, 0.001 μM): 0.70% | % of PB-treated Cells (CYP2B6 mRNA; donor 2, 0.005 μM): 0.43% | % of PB-treated Cells (CYP2B6 mRNA; donor 2, 0.01 μM): 0.11% | induction of CYP2B6 mRNA (CYP2B6 mRNA; donor 2, 0.001, 0.005, 0.01 μM): did not increase CYP2B6 mRNA | induction of CYP2B6 mRNA (CYP2B6 mRNA; donor 3, 0.025, 0.05 μM): did not increase CYP2B6 and CYP3A4 mRNA | minor induction of CYP3A4 (CYP3A4 mRNA): 5-8% | minor induction of CYP3A4 mRNA (CYP3A4 mRNA): FL118 induces a minor induction (5-8%) of CYP3A4 | Tmax (in vivo; HT29 tumor): 1 h | half-life (in vivo; HT29 tumor): 4.24 h | Tmax (in vivo; SW620 tumor): 1 h | half-life (in vivo; SW620 tumor): 2.99 h | bioavailability (in vivo; plasma, oral): 84.6% | Tmax (in vivo; plasma): 0.5 h | half-life (in vivo; plasma): 5.12 h | UbE2T mRNA (UbE2T): without inhibiting its mRNA levels | UbE2T protein (UbE2T): inhibits UbE2T protein in a dose- and time-dependent manner
